Source: patent publication US9951028B2, “Agricultural chemicals” (REDAG CROP PROTECTION LTD, priority 2013, dated 2018)

What was measured:
Assay type in all cases: in vivo
[1] = tested on: common chickweed, Stellaria media; assay: Herbicidal efficacy screen, potter tower spray, necrosis assessed; conditions: 200 g/ha
Protocol: (§1) Compounds 22, 23 and 24 were screened for herbicidal efficacy against target plants: garden cress, Lepidium sativum, common chickweed, Stellaria media, and white mustard […] alba Plants were obtained as seeds and were grown to the 2-4 true leaf stage. Plants were grown under laboratory conditions, individually in seed trays. Each plant (in an approximately 3 cm diameter plug) was then detached from the tray for spraying. The compounds were screened at a range of five concentrations, diluted in acetone and TweenTM. A carrier only control was also conducted. Treatments were applied directly onto the plants, using a potter tower, at a specified application rate. One plant of each species was sprayed using a potter tower. The 3 different types of plants were placed on a 10 cm diameter platform directly beneath the potter sprayer and sprayed simultaneously. The growth of the plants and any Phytotoxicity effects were then assessed at intervals over 21 days, according to EPPO guideline PP1/135. Five replicas were performed for each treatment, for each species. In the tables below C represents a percentage increase in necrosis relative to the control of 0.1-50; B represents a percentage inhibition of 50-80; and A represents a percentage inhibition of 80-100.

[2] = tested on: white mustard Sinapsis alba; assay: as above
Protocol: as §1

[3] = tested on: Abutilon theophrasti (China Jute); assay: Herbicidal efficacy screen, corrected necrosis
Protocol: (§2) Plants were obtained as seeds and were grown to the 2-4 true leaf stage. Plants were grown under laboratory conditions, individually in seed trays. Each plant (in an approximately 3 cm diameter plug) was then detached from the tray for spraying. The compounds were screened at a range of five concentrations, diluted in acetone and Tween™. A carrier only control was also conducted. Treatments were applied directly onto the plants, using a potter tower, at a specified application rate. One plant of each species was sprayed using a potter tower. The 3 different types of plants were placed on a 10 cm diameter platform directly beneath the potter sprayer and sprayed simultaneously. The growth of the plants and any Phytotoxicity effects were then assessed at intervals over 21 days, according to EPPO guideline PP1/135. In the tables below C represents a percentage increase in necrosis relative to the control of 0.1-50; B represents a percentage inhibition of 50-80; and A represents a percentage inhibition of 80-100. Certain compounds of the invention were screened for herbicidal efficacy against target plants: Amaranthus retroflexus (redroot pigweed), Abutilon theophrasti (China Jute): Capsella bursa-pastoris, (shepherd's-purse) Echinochloa crus-galli, Hordeum vulgare (Barley),

[4] = tested on: Amaranthus retroflexus (redroot pigweed); assay: Herbicidal efficacy screen, corrected necrosis
Protocol: as §2

[5] = tested on: Capsella bursa-pastoris, (shepherd's-purse); assay: Herbicidal efficacy screen, corrected necrosis
Protocol: as §2

[6] = 12.5 g/ha, day 1 post application
[7] = 12.5 g/ha, day 7 post application
[8] = 25 g/ha, day 1 post application
[9] = 25 g/ha, day 7 post application
[10] = 50 g/ha, day 1 post application
[11] = 50 g/ha, day 7 post application
[12] = 100 g/ha, day 1 post application
[13] = 100 g/ha, day 7 post application
[14] = 6.25 g/ha, day 1 post application
[15] = 6.25 g/ha, day 7 post application

CC(C)N(C)S(=O)(=O)/N=C/c1cc(-n2c(=O)cc(C(F)(F)F)n(C)c2=O)c(F)cc1Cl [Compound 22, 1-[4-Chloro-2-fluoro-5-[(E)-(isopropyl(methyl)sulfamoyl)iminomethyl]phenyl]-3-methyl-2,6-dioxo-4-(trifluoromethyl)pyrimidine]
Average of necrosis ([1]; day 5 post application): A (A represents a percentage inhibition of 80-100) | Average of necrosis ([1]; day 7 post application): A (A represents a percentage inhibition of 80-100) | Average of necrosis ([1]; day 10 post application): A (A represents a percentage inhibition of 80-100) | Average of necrosis [2, 6]: C (C represents a percentage increase in necrosis relative to the control of 0.1-50) | Average of necrosis ([2]; 12.5 g/ha, day 2 post application): C (C represents a percentage increase in necrosis relative to the control of 0.1-50) | Average of necrosis ([2]; 12.5 g/ha, day 3 post application): C (C represents a percentage increase in necrosis relative to the control of 0.1-50) | Average of necrosis ([2]; 12.5 g/ha, day 4 post application): C (C represents a percentage increase in necrosis relative to the control of 0.1-50) | Average of necrosis ([2]; 12.5 g/ha, day 5 post application): C (C represents a percentage increase in necrosis relative to the control of 0.1-50) | Average of necrosis [2, 7]: C (C represents a percentage increase in necrosis relative to the control of 0.1-50) | Average of necrosis ([2]; 12.5 g/ha, day 10 post application): B (B represents a percentage inhibition of 50-80) | Average of necrosis [2, 8]: C (C represents a percentage increase in necrosis relative to the control of 0.1-50) | Average of necrosis ([2]; 25 g/ha, day 2 post application): C (C represents a percentage increase in necrosis relative to the control of 0.1-50) | Average of necrosis ([2]; 25 g/ha, day 3 post application): C (C represents a percentage increase in necrosis relative to the control of 0.1-50) | Average of necrosis ([2]; 25 g/ha, day 4 post application): C (C represents a percentage increase in necrosis relative to the control of 0.1-50) | Average of necrosis ([2]; 25 g/ha, day 5 post application): C (C represents a percentage increase in necrosis relative to the control of 0.1-50) | Average of necrosis [2, 9]: C (C represents a percentage increase in necrosis relative to the control of 0.1-50) | Average of necrosis ([2]; 25 g/ha, day 10 post application): C (C represents a percentage increase in necrosis relative to the control of 0.1-50) | Average of necrosis [2, 10]: C (C represents a percentage increase in necrosis relative to the control of 0.1-50) | Average of necrosis ([2]; 50 g/ha, day 2 post application): C (C represents a percentage increase in necrosis relative to the control of 0.1-50) | Average of necrosis ([2]; 50 g/ha, day 3 post application): C (C represents a percentage increase in necrosis relative to the control of 0.1-50) | Average of necrosis ([2]; 50 g/ha, day 4 post application): C (C represents a percentage increase in necrosis relative to the control of 0.1-50) | Average of necrosis ([2]; 50 g/ha, day 5 post application): B (B represents a percentage inhibition of 50-80) | Average of necrosis [2, 11]: B (B represents a percentage inhibition of 50-80) | Average of necrosis ([2]; 50 g/ha, day 10 post application): B (B represents a percentage inhibition of 50-80) | Average of necrosis [2, 12]: C (C represents a percentage increase in necrosis relative to the control of 0.1-50) | Average of necrosis ([2]; 100 g/ha, day 2 post application): C (C represents a percentage increase in necrosis relative to the control of 0.1-50) | Average of necrosis ([2]; 100 g/ha, day 3 post application): C (C represents a percentage increase in necrosis relative to the control of 0.1-50) | Average of necrosis ([2]; 100 g/ha, day 4 post application): C (C represents a percentage increase in necrosis relative to the control of 0.1-50) | Average of necrosis ([2]; 100 g/ha, day 5 post application): C (C represents a percentage increase in necrosis relative to the control of 0.1-50) | Average of necrosis [2, 13]: C (C represents a percentage increase in necrosis relative to the control of 0.1-50) | Average of necrosis ([2]; 100 g/ha, day 10 post application): B (B represents a percentage inhibition of 50-80) | Average of necrosis ([2]; 200 g/ha, day 1 post application): C (C represents a percentage increase in necrosis relative to the control of 0.1-50) | Average of necrosis ([2]; 200 g/ha, day 2 post application): C (C represents a percentage increase in necrosis relative to the control of 0.1-50) | Average of necrosis ([2]; 200 g/ha, day 3 post application): C (C represents a percentage increase in necrosis relative to the control of 0.1-50) | Average of necrosis ([2]; 200 g/ha, day 4 post application): C (C represents a percentage increase in necrosis relative to the control of 0.1-50) | Average of necrosis ([2]; 200 g/ha, day 5 post application): C (C represents a percentage increase in necrosis relative to the control of 0.1-50) | Average of necrosis ([2]; 200 g/ha, day 7 post application): C (C represents a percentage increase in necrosis relative to the control of 0.1-50) | Average of necrosis ([2]; 200 g/ha, day 10 post application): B (B represents a percentage inhibition of 50-80) | Average of corrected necrosis [3, 14]: C (C represents a percentage increase in necrosis relative to the control of 0.1-50) | Average of corrected necrosis [3, 15]: A (A represents a percentage inhibition of 80-100) | Average of corrected necrosis [3, 6]: C (C represents a percentage increase in necrosis relative to the control of 0.1-50) | Average of corrected necrosis [3, 7]: A (A represents a percentage inhibition of 80-100) | Average of corrected necrosis [3, 8]: C (C represents a percentage increase in necrosis relative to the control of 0.1-50) | Average of corrected necrosis [3, 9]: A (A represents a percentage inhibition of 80-100) | Average of corrected necrosis [3, 10]: C (C represents a percentage increase in necrosis relative to the control of 0.1-50) | Average of corrected necrosis [3, 11]: A (A represents a percentage inhibition of 80-100) | Average of corrected necrosis [3, 12]: C (C represents a percentage increase in necrosis relative to the control of 0.1-50) | Average of corrected necrosis [3, 13]: A (A represents a percentage inhibition of 80-100) | Average of corrected necrosis [4, 14]: C (C represents a percentage increase in necrosis relative to the control of 0.1-50) | Average of corrected necrosis [4, 15]: A (A represents a percentage inhibition of 80-100) | Average of corrected necrosis [4, 6]: C (C represents a percentage increase in necrosis relative to the control of 0.1-50) | Average of corrected necrosis [4, 7]: A (A represents a percentage inhibition of 80-100) | Average of corrected necrosis [4, 8]: C (C represents a percentage increase in necrosis relative to the control of 0.1-50) | Average of corrected necrosis [4, 9]: A (A represents a percentage inhibition of 80-100) | Average of corrected necrosis [4, 10]: C (C represents a percentage increase in necrosis relative to the control of 0.1-50) | Average of corrected necrosis [4, 11]: A (A represents a percentage inhibition of 80-100) | Average of corrected necrosis [4, 12]: C (C represents a percentage increase in necrosis relative to the control of 0.1-50) | Average of corrected necrosis [4, 13]: A (A represents a percentage inhibition of 80-100) | Average of corrected necrosis [5, 14]: 0% | Average of corrected necrosis [5, 15]: A (A represents a percentage inhibition of 80-100) | Average of corrected necrosis [5, 6]: C (C represents a percentage increase in necrosis relative to the control of 0.1-50) | Average of corrected necrosis [5, 7]: A (A represents a percentage inhibition of 80-100) | Average of corrected necrosis [5, 8]: C (C represents a percentage increase in necrosis relative to the control of 0.1-50) | Average of corrected necrosis [5, 9]: A (A represents a percentage inhibition of 80-100) | Average of corrected necrosis [5, 10]: 0% | Average of corrected necrosis [5, 11]: A (A represents a percentage inhibition of 80-100) | Average of corrected necrosis [5, 12]: C (C represents a percentage increase in necrosis relative to the control of 0.1-50) | Average of corrected necrosis [5, 13]: A (A represents a percentage inhibition of 80-100)
